Assay [1] deals with MRC-9 human non-cancer fibroblast cells. The assay can be described thus: MTT assay, MRC-9 non-cancer fibroblasts. As to conditions: treated for 48 h. The class given is cell-based. Here is the method:
(§1) The human prostate cancer cell lines PC-3 [docetaxel-resistant, androgen-independent, AR-FL(-), AR-V7(-)], 22Rv1 [docetaxel-sensitive, androgen-independent, AR-FL(+), AR-V7(+)], and the human non-cancer fibroblast cell line MRC-9 were used. PC-3 and 22Rv1 were purchased from ATCC (Manassas, VA, USA). MRC-9 cells were kindly donated by Prof. Dr. med. Sonja Loges (University Medical Center Hamburg-Eppendorf, Hamburg, Germany). Cells were cultured according to the manufacturers’ protocol in 10% FBS/RPMI (PC-3 and 22Rv1) or 10% FBS/DMEM (MRC-9) medium.
(§2) In vitro drug sensitivity MTT assay was performed as previously described. In total, 6000 cells/well were seeded in 96-well plates, incubated overnight, and treated with the investigated drugs for 48 h.

Assay [2] relates to PC-3 human prostate cancer cells. Put plainly: MTT assay, PC-3 cells. The conditions noted are these: for IC50: PC-3 cells, MTT, treated for 48 h; for Selectivity index (MRC-9 vs. PC-3): [IC50 in MRC-9 cells] / [IC50 in PC-3 cells]. The class given is cell-based. Here is the method: as §1, §2
(Formazan colour is commonly taken as a measure of viable cells.)

Assay [3] concerns 22Rv1 human prostate cancer cells. Put plainly: MTT assay, 22Rv1 cells. As to conditions: treated for 48 h. The class given is cell-based. The protocol: as §1, §2
Assay [4] deals with CDK1–CDK9 mRNA in PC-3 cells. Put plainly: qPCR of CDK1-CDK9 mRNA expression. The class given is cell-based, human. As to conditions: 24 h, normalized to GAPDH (Figure 5). The protocol:
The CDKs gene expression was measured using qPCR technique. PC-3 cells were seeded in Petri dishes (1 × 10^6 cells per ø 6 cm dish in 5 mL) in standard culture media, incubated overnight and treated with the investigated drugs in the fresh culture media for 24 h. Cells were harvested using the cell scraper, washed with PBS and homogenized using QIAshredder (QIAGEN, Hilden, Germany). The total RNA was isolated using PureLink® RNA Mini Kit (Invitrogen, Carlsbad, CA, USA) and the on-column DNA digestion using PureLink™ DNase (Invitrogen). Correspondent RNA (2 µg in 30 µL) and was transcribed into cDNA using Maxima First Strand cDNA Synthesis Kit for RT-qPCR (Thermo Scientific, Vilnius, Lithuania). The following qPCR was performed using 2X KAPA SYBR FAST qPCR Master Mix Optimized for Roche LightCycler 480 (KAPA biosystems, Worburn, MA, USA) according to the manufacturer’s protocol. In total, 20 ng of the template cDNA and 2 pmol of primers were used for each reaction. The PCR conditions were 30 s at 95 °C, followed by 40 cycles of 15 s at 95 °C, 5 s at melting temperature (Tm), and 26 s at 72 °C (fluorescence measurement). Melting curve analysis was performed under the following conditions directly after the PCR run: 10 s at 95 °C, 60 s at 65 °C and 1 s at 97 °C. Relative gene expression was calculated using the 2^-∆∆CT method. The expression of CDKs was normalized to GAPDH gene expression. The analysis was performed using primers, purchased from Eurofins MWG-Biotech AG (Ebersberg, Germany).
Due to the significant alterations of the cell cycle, we further investigated the effects of the isolated compounds on the cyclin-dependent kinases (CDKs). These proteins are known to control proliferation as well as some apoptotic processes. We have examined the expression of mRNAs corresponding to the nine most studied CDKs known to be involved in the cell cycle progression of cancer cells, namely, CDK1–CDK9. […] Remarkably, these effects correlated well with the cytotoxicity of the isolated compounds.
Figure 5 Expression of mRNA correspondent to CDK1-9 in PC-3 cells treated with the isolated compounds 1–8 for 24 h. The target gene expression was normalized to GAPDH gene expression. * p ≤ 0.05 (Student’s t-test).
A general note: Real-time PCR tracks product formation cycle by cycle.

The test system of assay [5] is PC-3 cells. Put plainly: DNA fragmentation / apoptosis induction by flow cytometry (PI staining, sub-G1). The assay is classed as cell-based, human. The conditions noted are these: PC-3 cells, 0.5, 1, 5 and 10 µM, 24 h (Figure 3). The protocol:
(§3) The effect of the compounds on apoptosis induction and cell cycle progression was analyzed by flow cytometry technique using PI staining as reported before. Cells (0.2 × 10^6 cells/well) were seeded in six-well plates, incubated overnight, and treated with the investigated drugs for 48 h. The cells were further harvested, fixed with 70% EtOH/H2O, stained with propidium iodide (PI), and analyzed using a FACS Calibur machine (BD Bioscience, San Jose, CA, USA). The results were quantified using BD Bioscience Cell Quest Pro software (v.5.2.1., BD Bioscience).
To investigate the mechanism of action contributing to the cytotoxicity in PC-3 cells, we investigated the effects on DNA fragmentation, a well-established marker of cellular apoptosis. Therefore, we evaluated the effects of the isolated compounds at four different concentrations of 0.5 µM, 1 µM, 5 µM, and 10 µM by flow cytometry (Figure 3). […] Therefore, prenylated dimeric flavonoid 8 may either reveal a non-apoptotic character of cell death or a predominantly antiproliferative rather than cytotoxic effect.
Figure 3 Effect of natural compounds on DNA fragmentation of PC-3 cells. Cells were treated with the investigated compounds for 24 h. The effects were analyzed by flow cytometry. Cells detected as sub-G1 population were considered to be apoptotic. Cisplatin (Cis) was used as a positive control. * p ≤ 0.05 (Student’s t-test).
In general terms: Flow cytometry measures light scatter and fluorescence of single cells or particles in a stream.

In assay [6] the test system is PC-3 cells. Put plainly: Cell cycle progression by flow cytometry (PI staining). The class given is cell-based, human. The conditions noted are these: 24 h (Figure 4). The protocol:
as §3
Next, we examined the effects of the isolated compounds on the cell cycle progression of PC-3 cells. For compounds 1–3, a significant accumulation of the cells in S-phase as well as slight accumulation in G2/M-phase was observed (Figure 4).
Figure 4 Treatment effects on the progression of the cell cycle of PC-3 cells. Cells were treated with the investigated compounds for 24 h. The effects were analyzed by flow cytometry. Cisplatin was used as a positive control. * p ≤ 0.05 (Student’s t-test).

Setting [7] is: Homo sapiens, MRC9, MRC-9 cells.

Entries after “also recorded” stand apart in the source; their conditions may differ.

For `N.N.[Cl][Pt][Cl]` [Cisplatin, reference compound], the IC50 (usually the concentration needed to halve the response being measured) was found to be 15.1 µM in assay [1] (MRC-9 cells), 21 µM in assay [2] and 4.53 µM in assay [3]. Moreover, the “Selectivity index (MRC-9 vs. PC-3)” value in assay [2] came to 0.72.
With `CC(C)=CCC/C(C)=C/Cc1c(O)c(O)cc2c3c(oc12)-c1ccc(O)cc1OC3` [Compound 1], the IC50 in assay [1] (setting [7]) was determined as 48.5 µM; in assay [2] (Homo sapiens), 6.73 µM; in assay [3] (Homo sapiens), 20.1 µM. Moreover, in assay [2], the “Selectivity index (MRC-9 vs. PC-3)” value is 7.21. For the same compound, the “Effect on expression of mRNA corresponding to CDK1-9” value (shortened to “Effect on expression”) in assay [4] was “inhibitory effects”.
For `CC(C)=CCC/C(C)=C/Cc1c(O)c(O)cc2c1O[C@H]1c3ccc(O)cc3OC[C@@H]21` [Compound 2], the figures for the IC50 in assay [1] (setting [7]), in assay [2] (Homo sapiens) and in assay [3] (Homo sapiens) were 37.6 µM, 5.24 µM and 13.8 µM, respectively. Besides, the “Selectivity index (MRC-9 vs. PC-3)” value in assay [2] was determined as 7.17. In assay [4], the “Effect on expression” value is recorded as “inhibitory effects; also recorded: fairly active”.
As for `CC(C)=CCC/C(C)=C/Cc1c(O)c(O)cc2c1O[C@H]1c3cc(CC=C(C)C)c(O)cc3OC[C@@H]21` [Compound 3], the IC50 amounted to 16.8 µM in assay [1] (setting [7]), 2.1 µM in assay [2] (Homo sapiens) and 6.38 µM in assay [3] (Homo sapiens). For the same compound, the “Selectivity index (MRC-9 vs. PC-3)” value in assay [2] is 7.99. In the assay with PC-3 cells [5], the “Apoptosis induction (DNA fragmentation, sub-G1 population)” value was “most pronounced apoptosis-inducing effect”. Also, in assay [4], the “Effect on expression” value is listed as “inhibitory effects; also recorded: strongest inhibitory effect”.
Turning to `CC(C)=CCC[C@]1(C)C=Cc2c(c(O)cc3c2O[C@H]2c4ccc(O)cc4OC[C@@H]32)O1` [Compound 4], the figures for the IC50 in assay [1] (setting [7]), in assay [2] (Homo sapiens) and in assay [3] (Homo sapiens) were 27.2 µM, 16.4 µM and 29.5 µM, respectively. The “Selectivity index (MRC-9 vs. PC-3)” value in assay [2] is listed as 1.66.
Take `CC(C)=CCC[C@@]1(C)C=Cc2c(c(O)cc3c2O[C@H]2c4ccc(O)cc4OC[C@@H]32)O1` [Compound 5]: the IC50 in assay [1] (setting [7]) was determined as 24.6 µM; in assay [2] (Homo sapiens), 15.2 µM; in assay [3] (Homo sapiens) it was 35.8 µM. Moreover, the “Selectivity index (MRC-9 vs. PC-3)” value in assay [2] amounted to 1.62.
For `CC(C)=CCC/C(C)=C/Cc1c(O)c(O)cc(C(=O)C(=O)c2ccc(O)cc2O)c1O` [Compound 6] the same measures were greater than 50 µM, 19.3 µM, 46.9 µM and greater than 2.6.
Take `COc1cc2c(c(C/C=C(\C)CCC=C(C)C)c1O)O[C@H]1c3ccc(O)cc3OC[C@@H]21` [Compound 7, (6aR,11aR)-8-O-methyl-6a,11a-dihydrolespedezol A2]: the IC50 in assay [1] (setting [7]) stood at 24.4 µM; in assay [2] (Homo sapiens) it was 14.9 µM; in assay [3] (Homo sapiens), 30.5 µM. The “Effect on cell cycle progression” value with PC-3 cells [6] was “G1-phase arrest instead of S-phase arrest”. The “Selectivity index (MRC-9 vs. PC-3)” value in assay [2] is on record as 1.64. The “Effect on expression” value in assay [4] was “did not exhibit this activity”.
Take `CC(C)=CCC/C(C)=C/Cc1c(O)c(C(=O)c2c(-c3ccc(O)cc3O)oc3c(C/C=C(\C)CCC=C(C)C)c(O)c(O)cc23)cc2c1O[C@H]1c3ccc(O)cc3OC[C@@H]21` [Compound 8, Lespebicolin A]: the IC50 was 23.9 µM in assay [1] (setting [7]), 9.24 µM in assay [2] (Homo sapiens) and 17.5 µM in assay [3] (Homo sapiens). For the same compound, the “Effect on cell cycle progression” value in the assay with PC-3 cells [6] was “could not induce an S-phase cell cycle arrest”. For the same compound, in assay [2], the “Selectivity index (MRC-9 vs. PC-3)” value is listed as 2.59. Also, the “Apoptosis induction (DNA fragmentation, sub-G1 population)” value in the assay on PC-3 cells [5] is recorded as “apart from structurally different lespebicolin A (8)”. Moreover, in assay [4], the “Effect on expression” value was “did not exhibit any pronounced effect on CDKs mRNA expression”.

The values above are taken from PMC7175281, “Polyphenolic Compounds from Lespedeza Bicolor Root Bark Inhibit Progression of Human Prostate Cancer Cells via Induction of Apoptosis and Cell Cycle Arrest” (Biomolecules, 2020).
